Results from DBAASP.
≈ marks a conversion by molar mass, not a printed value. Where “and” joins values, the source holds several entries; their conditions need not be identical. Equal values may be shown once.

Key:
Assay in all cases: ≥ marks a high value that may be exact or a test limit, other limits are often not marked, values filed in µg/mL are converted to µM
[1] = system: Corynebacterium glutamicum ATCC 13032
[2] = system: Vibrio anguillarum NCIMB 2129
[3] = system: Psychrobacter immobilis NCIMB 308
Yersinia ruckeri VI-3629 = system: Yersinia ruckeri VI-3629
[4] = system: Escherichia coli ATCC 25922
[5] = system: Planococcus citreus NCIMB 1493
[6] = system: Staphylococcus aureus ATCC 9144
[7] = system: Micrococcus luteus ATCC 4698
[8] = system: Vibrio anguillarum VI-F258-3
[9] = system: Aeromonas salmonicida NCIMB 1102
[10] = system: Vibrio anguillarum NCIMB 2133
[11] = system: Yersinia ruckeri NCIMB 2196
Vibrio anguillarum = system: Vibrio anguillarum
Aerococcus viridans = system: Aerococcus viridans
Bacillus subtilis = system: Bacillus subtilis
[12] = system: Staphylococcus haemolyticus
Aeromonas hydrophila = system: Aeromonas hydrophila
Vibrio harveyi = system: Vibrio harveyi
Escherichia coli 363 = system: Escherichia coli 363
Micrococcus luteus = system: Micrococcus luteus
[13] = system: Pseudomonas aeruginosa ATCC 27853
Candida albicans SC5314 = system: Candida albicans SC5314
[14] = system: Staphylococcus aureus 08A865
[15] = system: Bacillus subtilis ATCC 6633
[16] = system: Staphylococcus aureus 08A875
[17] = system: Pseudomonas aeruginosa 08031014
[18] = system: Staphylococcus aureus ATCC 29213
[19] = system: Staphylococcus aureus ATCC 2592
Pseudomonas aeruginosa = system: Pseudomonas aeruginosa
[20] = system: Candida albicans 08022710
[21] = system: Candida albicans 08022821
Candida albicans = system: Candida albicans
Escherichia coli = system: Escherichia coli
[22] = system: Candida albicans ATCC 2002
[23] = system: Xanthomonas axonopodis pv. citri
[24] = system: Staphylococcus aureus ATCC 25923
[25] = system: Escherichia coli ATCC 8739
[26] = system: Staphylococcus aureus ATCC 29313
[27] = system: Klebsiella pneumoniae ATCC 700603
[28] = system: Staphylococcus epidermidis RP62A/1
[29] = system: Stenotrophomonas maltophilia B32/4
[30] = system: Candida albicans ATCC 90028
[31] = system: Staphylococcus epidermidis RP62A
[32] = system: Acinetobacter baumannii NM8
[33] = system: Escherichia coli ATCC 25726

**Q.** With `CC[C@H](C)[C@H](NC(=O)[C@H](CC(C)C)NC(=O)CNC(=O)[C@@H](NC(=O)[C@@H](NC(=O)[C@H](Cc1cnc[nH]1)NC(=O)[C@H](Cc1cnc[nH]1)NC(=O)[C@H](CC(C)C)NC(=O)[C@@H](N)Cc1ccccc1)[C@@H](C)CC)C(C)C)C(=O)N[C@@H](Cc1cnc[nH]1)C(=O)N[C@@H](Cc1cnc[nH]1)C(=O)NCC(=O)N[C@@H](CCCCN)C(=O)N[C@@H](CC(C)C)C(=O)N[C@@H](CC(=O)O)C(=O)N[C@@H](CCSC)C(=O)N[C@@H](Cc1ccc(O)cc1)C(=O)N[C@@H](CCCN=C(N)N)C(=O)N[C@@H](CO)C(=O)N[C@@H](CC(N)=O)C(=O)N[C@@H](CC(N)=O)C(=O)O` [FLHHIVGLIHHGKLDMYRSNN] as the compound, how does the MIC [1] read?
**A.** 10 µM (≈ 25 µg/mL)

**Q.** And the MIC [2]?
**A.** 10 µM (≈ 25 µg/mL)

**Q.** What about the MIC [3] of the same compound?
**A.** 10 µM (≈ 25 µg/mL)

**Q.** What about the MIC (Yersinia ruckeri VI-3629) of the same compound?
**A.** 10 µM (≈ 25 µg/mL)

**Q.** And the MIC [4]?
**A.** > 10 µM

**Q.** And the MIC [5]?
**A.** 10 µM (≈ 25 µg/mL)

**Q.** What about the MIC [6] of the same compound?
**A.** 10 µM (≈ 25 µg/mL)

**Q.** What about the MIC [7] of the same compound?
**A.** 10 µM (≈ 25 µg/mL)

**Q.** What about the MIC [8] of the same compound?
**A.** 10 µM (≈ 25 µg/mL)

**Q.** What about the MIC [9] of the same compound?
**A.** 10 µM (≈ 25 µg/mL)

**Q.** What about the MIC [10] of the same compound?
**A.** 10 µM (≈ 25 µg/mL)

**Q.** What about the MIC [11] of the same compound?
**A.** 10 µM (≈ 25 µg/mL)

**Q.** `CC[C@H](C)[C@H](N)C(=O)N1CCC[C@H]1C(=O)N[C@@H](C)C(=O)N[C@@H](CCSC)C(=O)N[C@@H](CCC(=O)O)C(=O)N1CCC[C@H]1C(=O)N[C@@H](C)C(=O)N[C@@H](C)C(=O)N[C@@H](CCCN=C(N)N)C(=O)N[C@H](C(=O)N[C@@H](CCCCN)C(=O)N[C@@H](CCCN=C(N)N)C(=O)N[C@@H](CO)C(=O)N1CCC[C@H]1C(=O)NCC(=O)N[C@@H](Cc1ccc(O)cc1)C(=O)NCC(=O)NCC(=O)N[C@H]1CSSC[C@@H](C(=O)NCC(=O)NCC(=O)N[C@@H](Cc2ccc(O)cc2)C(=O)NCC(=O)O)NC(=O)[C@H](C)NC(=O)[C@H](Cc2c[nH]c3ccccc23)NC(=O)[C@H](CCCN=C(N)N)NC(=O)[C@@H]2CCCN2C(=O)[C@H](CO)NC1=O)C(C)C` [IPAMEPAARVKRSPGYGGCSPRWACGGYG] was tested. Which MIC (Vibrio anguillarum) did it give?
**A.** ≥ 50 µM

**Q.** And the MIC (Aerococcus viridans)?
**A.** 12.5 µM (≈ 37.4 µg/mL)

**Q.** And the MIC (Bacillus subtilis)?
**A.** ≥ 50 µM

**Q.** What about the MIC [12] of the same compound?
**A.** ≥ 50 µM

**Q.** What about the MIC (Aeromonas hydrophila) of the same compound?
**A.** ≥ 50 µM

**Q.** What about the MIC (Vibrio harveyi) of the same compound?
**A.** ≥ 50 µM

**Q.** What about the MIC (Escherichia coli 363) of the same compound?
**A.** ≥ 50 µM

**Q.** And the MIC (Micrococcus luteus)?
**A.** 25 µM (≈ 74.8 µg/mL)

**Q.** `CC[C@H](C)[C@H](NC(=O)[C@H](Cc1cnc[nH]1)NC(=O)[C@H](CO)NC(=O)[C@@H](NC(=O)[C@@H](NC(=O)[C@@H](NC(=O)[C@@H](NC(=O)[C@H](CCCNC(=N)N)NC(=O)[C@H](CC(C)C)NC(=O)[C@H](CCCCN)NC(=O)[C@H](CCC(=O)O)NC(=O)[C@H](CCCCN)NC(=O)[C@H](CC(C)C)NC(=O)[C@H](CCCCN)NC(=O)[C@@H]1CSSC[C@H](NC(=O)[C@H](CCCCN)NC(=O)[C@@H](N)CCCNC(=N)N)C(=O)N[C@@H](CC(N)=O)C(=O)N[C@@H](Cc2ccccc2)C(=O)N[C@@H](CC(C)C)C(=O)N1)[C@@H](C)O)C(C)C)[C@@H](C)CC)[C@@H](C)O)C(=O)N[C@@H](CC(=O)O)C(=O)N[C@@H](CCCCN)C(=O)N[C@H](C(=O)N[C@@H](CC(C)C)C(=O)N[C@@H](CCCNC(=N)N)C(=O)N1CCC[C@H]1C(=O)N[C@@H](CCC(N)=O)C(=O)NCC(=O)O)C(C)C` [RKCNFLCKLKEKLRTVITSHIDKVLRPQG] was tested. Which MIC [13] did it give?
**A.** 5.47 µM and > 2.74 µM

**Q.** What about the MIC (Candida albicans SC5314) of the same compound?
**A.** ≥ 64 µM

**Q.** What about the MIC [14] of the same compound?
**A.** 2.74 µM (≈ 9.37 µg/mL)

**Q.** And the MIC [15]?
**A.** 29.2 µM and 21.9 µM

**Q.** And the MIC [16]?
**A.** 5.47 µM (≈ 18.7 µg/mL)

**Q.** And the MIC [17]?
**A.** 10.9 µM (≈ 37.5 µg/mL)

**Q.** What about the MIC [18] of the same compound?
**A.** > 64 µM

**Q.** What about the MIC [19] of the same compound?
**A.** 2.74 µM and 1.37 µM

**Q.** What about the MIC (Pseudomonas aeruginosa) of the same compound?
**A.** 2.74 µM (≈ 9.37 µg/mL)

**Q.** And the MIC [20]?
**A.** 5.47 µM (≈ 18.7 µg/mL)

**Q.** And the MIC [21]?
**A.** 2.74 µM (≈ 9.37 µg/mL)

**Q.** What about the MIC (Candida albicans) of the same compound?
**A.** 1.37 µM (≈ 4.69 µg/mL)

**Q.** And the MIC (Escherichia coli)?
**A.** 1.94 µM (≈ 6.63 µg/mL)

**Q.** What about the MIC [22] of the same compound?
**A.** 1.37 µM and 0.686 µM

**Q.** What does the source list for `CC(C)C[C@H](NC(=O)[C@H](C)NC(=O)[C@@H](NC(=O)[C@H](CCCCN)NC(=O)CNC(=O)[C@@H](NC(=O)[C@@H](NC(=O)[C@H](CCCCN)NC(=O)CNC(=O)[C@H](CC(C)C)NC(=O)[C@H](CO)NC(=O)[C@H](CCCCN)NC(=O)[C@H](CC(C)C)NC(=O)[C@H](CCCCN)NC(=O)[C@H](CC(=O)O)NC(=O)[C@H](CC(C)C)NC(=O)[C@H](Cc1c[nH]c2ccccc12)NC(=O)[C@H](C)N)C(C)C)C(C)C)C(C)C)C(=O)NCC(=O)N[C@H](C(=O)N[C@@H](C)C(=O)N[C@@H](CCC(N)=O)C(=O)N[C@@H](CC(N)=O)C(=O)N[C@@H](Cc1ccc(O)cc1)C(=O)N[C@@H](CC(C)C)C(=O)N[C@@H](CC(N)=O)C(=O)N1CCC[C@H]1C(=O)N[C@@H](CCC(N)=O)C(=O)N[C@@H](CCC(N)=O)C(=O)O)C(C)C` [AWLDKLKSLGKVVGKVALGVAQNYLNPQQ]?
**A.** MIC [13]: 10 µM (≈ 31.4 µg/mL); MIC [23]: 2 µM (≈ 6.28 µg/mL); MIC [24]: 1.27 µM (≈ 4 µg/mL); MIC [4]: 5 µM (≈ 15.7 µg/mL); MIC [25]: 1.27 µM (≈ 4 µg/mL); MIC [26]: 20 µM (≈ 62.8 µg/mL)

**Q.** `CC[C@H](C)[C@H](N)C(=O)N[C@@H](CC(C)C)C(=O)NCC(=O)N[C@@H](CCCCN)C(=O)N[C@@H](CC(C)C)C(=O)N[C@@H](CC(C)C)C(=O)N[C@@H](CO)C(=O)N[C@H](C(=O)N[C@@H](C)C(=O)N[C@@H](C)C(=O)NCC(=O)N[C@@H](CC(C)C)C(=O)N[C@@H](CC(C)C)C(=O)N[C@@H](CO)C(=O)N[C@@H](CCCCN)C(=O)N[C@@H](CC(C)C)C(N)=O)[C@@H](C)O` [ILGKLLSTAAGLLSKL] was tested. Which MIC [13] did it give?
**A.** > 128 µM

**Q.** What about the MIC [27] of the same compound?
**A.** > 128 µM

**Q.** And the MIC [28]?
**A.** 8 µM (≈ 12.8 µg/mL)

**Q.** What about the MIC [24] of the same compound?
**A.** 32 µM (≈ 51.1 µg/mL)

**Q.** And the MIC [29]?
**A.** ≥ 128 µM

**Q.** What about the MIC [30] of the same compound?
**A.** ≥ 128 µM

**Q.** And the MIC [31]?
**A.** 16 µM (≈ 25.6 µg/mL)

**Q.** And the MIC [32]?
**A.** ≥ 128 µM

**Q.** And the MIC [33]?
**A.** ≥ 256 µM
